Assay results: patent US9708314B2, “Heterocyclic amide compound” (NISSAN CHEMICAL INDUSTRIES, LTD., priority 2013, dated 2017)

Tests used:
Format in all cases: in vivo
[1] = tested on: Cyperus difformis; test: Test Example 3: herbicidal effect by application to foliage (Wagner pot, water depth 0.1-0.5 cm); conditions: Nineteenth Table, application herbicide amount 320 g/ha; for E (herbicidal effect grade): application to foliage
Summary of the method: (§1)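 Three weeks after spraying, each species was graded 0–5 for herbicidal ratio, 5 being 90% or more. Application: water-diluted emulsifiable concentrate at a fixed g/ha to foliage of 14-day-old greenhouse (25–30 °C) plants in alluvial soil.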

[2] = tested on: Echinochloa crus-galli var. crus-galli; test: as above; conditions: Nineteenth Table, application herbicide amount 320 g/ha; for H (herbicidal effect grade): application to foliage
Summary of the method: as §1

[3] = tested on: Leptochloa chinensis; test: as above; conditions: Nineteenth Table, application herbicide amount 320 g/ha; for D (herbicidal effect grade): application to foliage
Summary of the method: as §1

[4] = tested on: Abutilon theophrasti; test: Test Example 4: herbicidal effect by application to foliage (diluvial soil, plastic box); conditions: for M (Abutilon theophrasti) herbicidal effect: application to foliage, application herbicide amount 320 g/ha; for M: Application herbicide amount 320 g/ha
Summary of the method: (§2)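 Scores run from 0 (herbicidal ratio ≤5%) to 5 (≥90%, almost fully withered) and were assessed three weeks after foliar spraying. Seedlings had been raised for 14 days at 25-30° C in sterilized diluvial soil before treatment, with the emulsion diluted in water to the stated g/ha dose.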

[5] = tested on: Alopecurus myosuroides; test: as above; conditions: for J (Alopecurus myosuroides) herbicidal effect: application to foliage, application herbicide amount 320 g/ha; for J: Application herbicide amount 320 g/ha
Summary of the method: as §2

[6] = tested on: Apera spica-venti.; test: as above; conditions: for L (Apera spica-venti.) herbicidal effect: application to foliage, application herbicide amount 320 g/ha; for L: Application herbicide amount 320 g/ha
Summary of the method: as §2

[7] = tested on: Avena fatua; test: as above; conditions: for I (Avena fatua) herbicidal effect: application to foliage, application herbicide amount 320 g/ha; for I: Application herbicide amount 320 g/ha
Summary of the method: as §2

[8] = tested on: Chenopodium album; test: as above; conditions: for O (Chenopodium album) herbicidal effect: application to foliage, application herbicide amount 320 g/ha; for O: Application herbicide amount 320 g/ha
Summary of the method: as §2

[9] = tested on: Digitaria ciliaris; test: as above; conditions: for F (Digitaria ciliaris) herbicidal effect: application to foliage, application herbicide amount 320 g/ha; for F: Application herbicide amount 320 g/ha
Summary of the method: as §2

[10] = tested on: Echinochloa crus-galli var. crus-galli; test: as above; conditions: for H (Echinochloa crus-galli var. crus-galli) herbicidal effect: application to foliage, application herbicide amount 320 g/ha; for H: Application herbicide amount 320 g/ha
Summary of the method: as §2

[11] = tested on: Galium spurium; test: as above; conditions: for Q (Galium spurium) herbicidal effect: application to foliage, application herbicide amount 320 g/ha; for Q: Application herbicide amount 320 g/ha
Summary of the method: as §2

[12] = tested on: Lolium multiflorum Lam.; test: as above; conditions: for K (Lolium multiflorum Lam.) herbicidal effect: application to foliage, application herbicide amount 320 g/ha; for K: Application herbicide amount 320 g/ha
Summary of the method: as §2

[13] = tested on: Setaria viridis; test: as above; conditions: for G (Setaria viridis) herbicidal effect: application to foliage, application herbicide amount 320 g/ha; for G: Application herbicide amount 320 g/ha
Summary of the method: as §2

[14] = tested on: Veronica persica; test: as above; conditions: for R (Veronica persica) herbicidal effect: application to foliage, application herbicide amount 320 g/ha; for R: Application herbicide amount 320 g/ha
Summary of the method: as §2

Compound: CCS(=O)(=O)c1nnc2c(C(=O)Nc3nnc(C)o3)ccc(C(F)(F)F)n12 [1-041]
- E (Cyperus difformis) herbicidal ratio grade [1]: 5 (Herbicidal ratio of 90% or more (almost completely withered))
- H (Echinochloa crus-galli var. crus-galli) herbicidal ratio grade [2]: 4 (Herbicidal ratio of 70% or more and less than 90%)
- D (Leptochloa chinensis) herbicidal ratio grade [3]: 5 (Herbicidal ratio of 90% or more (almost completely withered))
- M (Abutilon theophrasti) herbicidal effect [4]: 5 (Herbicidal ratio of 90% or more (almost completely withered))
- J (Alopecurus myosuroides) herbicidal effect [5]: 1 (Herbicidal ratio of 5% or more and less than 20%)
- L (Apera spica-venti.) herbicidal effect [6]: 4 (Herbicidal ratio of 70% or more and less than 90%)
- I (Avena fatua) herbicidal effect [7]: 3 (Herbicidal ratio of 40% or more and less than 70%)
- O (Chenopodium album) herbicidal effect [8]: 5 (Herbicidal ratio of 90% or more (almost completely withered))
- F (Digitaria ciliaris) herbicidal effect [9]: 5 (Herbicidal ratio of 90% or more (almost completely withered))
- H (Echinochloa crus-galli var. crus-galli) herbicidal effect [10]: 5 (Herbicidal ratio of 90% or more (almost completely withered))
- Q (Galium spurium) herbicidal effect [11]: 3 (Herbicidal ratio of 40% or more and less than 70%)
- K (Lolium multiflorum Lam.) herbicidal effect [12]: 2 (Herbicidal ratio of 20% or more and less than 40%)
- G (Setaria viridis) herbicidal effect [13]: 4 (Herbicidal ratio of 70% or more and less than 90%)
- R (Veronica persica) herbicidal effect [14]: 4 (Herbicidal ratio of 70% or more and less than 90%)

Compound: CSCCc1nnc2c(C(=O)Nc3nnc(C)o3)ccc(C(F)(F)F)n12 [1-083]
- E (herbicidal effect grade) [1]: 5 (Herbicidal ratio of 90% or more (almost completely withered))
- H (herbicidal effect grade) [2]: 5 (Herbicidal ratio of 90% or more (almost completely withered))
- D (herbicidal effect grade) [3]: 5 (Herbicidal ratio of 90% or more (almost completely withered))
- M [4]: 5 (Herbicidal ratio of 90% or more (almost completely withered))
- J [5]: 0 (Herbicidal ratio of 5% or less (almost no effect))
- L [6]: 0 (Herbicidal ratio of 5% or less (almost no effect))
- I [7]: 3 (Herbicidal ratio of 40% or more and less than 70%)
- O [8]: 5 (Herbicidal ratio of 90% or more (almost completely withered))
- F [9]: 5 (Herbicidal ratio of 90% or more (almost completely withered))
- H [10]: 5 (Herbicidal ratio of 90% or more (almost completely withered))
- Q [11]: 4 (Herbicidal ratio of 70% or more and less than 90%)
- K [12]: 1 (Herbicidal ratio of 5% or more and less than 20%)
- G [13]: 5 (Herbicidal ratio of 90% or more (almost completely withered))
- R [14]: 4 (Herbicidal ratio of 70% or more and less than 90%)

Compound: CCC(C)c1nnc2c(C(=O)Nc3nnc(C)o3)ccc(C(F)(F)F)n12 (stereo not drawn) [1-021]
- E (Cyperus difformis) herbicidal ratio grade [1]: 5 (Herbicidal ratio of 90% or more (almost completely withered))
- H (Echinochloa crus-galli var. crus-galli) herbicidal ratio grade [2]: 5 (Herbicidal ratio of 90% or more (almost completely withered))
- D (Leptochloa chinensis) herbicidal ratio grade [3]: 5 (Herbicidal ratio of 90% or more (almost completely withered))
- M (Abutilon theophrasti) herbicidal effect [4]: 5 (Herbicidal ratio of 90% or more (almost completely withered))
- J (Alopecurus myosuroides) herbicidal effect [5]: 1 (Herbicidal ratio of 5% or more and less than 20%)
- L (Apera spica-venti.) herbicidal effect [6]: 1 (Herbicidal ratio of 5% or more and less than 20%)
- I (Avena fatua) herbicidal effect [7]: 1 (Herbicidal ratio of 5% or more and less than 20%)
- O (Chenopodium album) herbicidal effect [8]: 5 (Herbicidal ratio of 90% or more (almost completely withered))
- F (Digitaria ciliaris) herbicidal effect [9]: 4 (Herbicidal ratio of 70% or more and less than 90%)
- H (Echinochloa crus-galli var. crus-galli) herbicidal effect [10]: 4 (Herbicidal ratio of 70% or more and less than 90%)
- Q (Galium spurium) herbicidal effect [11]: 3 (Herbicidal ratio of 40% or more and less than 70%)
- K (Lolium multiflorum Lam.) herbicidal effect [12]: 1 (Herbicidal ratio of 5% or more and less than 20%)
- G (Setaria viridis) herbicidal effect [13]: 3 (Herbicidal ratio of 40% or more and less than 70%)
- R (Veronica persica) herbicidal effect [14]: 4 (Herbicidal ratio of 70% or more and less than 90%)

Compound: Cc1nnc(NC(=O)c2ccc(C(F)(F)F)n3c(CC[S+](C)[O-])nnc23)o1 (stereo not drawn) [1-084]
- E (herbicidal effect grade) [1]: 5 (Herbicidal ratio of 90% or more (almost completely withered))
- H (herbicidal effect grade) [2]: 5 (Herbicidal ratio of 90% or more (almost completely withered))
- D (herbicidal effect grade) [3]: 5 (Herbicidal ratio of 90% or more (almost completely withered))
- M [4]: 5 (Herbicidal ratio of 90% or more (almost completely withered))
- J [5]: 0 (Herbicidal ratio of 5% or less (almost no effect))
- L [6]: 0 (Herbicidal ratio of 5% or less (almost no effect))
- I [7]: 3 (Herbicidal ratio of 40% or more and less than 70%)
- O [8]: 5 (Herbicidal ratio of 90% or more (almost completely withered))
- F [9]: 5 (Herbicidal ratio of 90% or more (almost completely withered))
- H [10]: 5 (Herbicidal ratio of 90% or more (almost completely withered))
- Q [11]: 4 (Herbicidal ratio of 70% or more and less than 90%)
- K [12]: 0 (Herbicidal ratio of 5% or less (almost no effect))
- G [13]: 5 (Herbicidal ratio of 90% or more (almost completely withered))
- R [14]: 5 (Herbicidal ratio of 90% or more (almost completely withered))

Compound: COCCc1nnc(NC(=O)c2ccc(C(F)(F)F)n3c(C(C)C)nnc23)o1 [1-052]
- E (Cyperus difformis) herbicidal ratio grade [1]: 5 (Herbicidal ratio of 90% or more (almost completely withered))
- H (Echinochloa crus-galli var. crus-galli) herbicidal ratio grade [2]: 4 (Herbicidal ratio of 70% or more and less than 90%)
- D (Leptochloa chinensis) herbicidal ratio grade [3]: 5 (Herbicidal ratio of 90% or more (almost completely withered))
- M (Abutilon theophrasti) herbicidal effect [4]: 4 (Herbicidal ratio of 70% or more and less than 90%)
- J (Alopecurus myosuroides) herbicidal effect [5]: 1 (Herbicidal ratio of 5% or more and less than 20%)
- L (Apera spica-venti.) herbicidal effect [6]: 3 (Herbicidal ratio of 40% or more and less than 70%)
- I (Avena fatua) herbicidal effect [7]: 0 (Herbicidal ratio of 5% or less (almost no effect))
- O (Chenopodium album) herbicidal effect [8]: 5 (Herbicidal ratio of 90% or more (almost completely withered))
- F (Digitaria ciliaris) herbicidal effect [9]: 3 (Herbicidal ratio of 40% or more and less than 70%)
- H (Echinochloa crus-galli var. crus-galli) herbicidal effect [10]: 2 (Herbicidal ratio of 20% or more and less than 40%)
- Q (Galium spurium) herbicidal effect [11]: 1 (Herbicidal ratio of 5% or more and less than 20%)
- K (Lolium multiflorum Lam.) herbicidal effect [12]: 1 (Herbicidal ratio of 5% or more and less than 20%)
- G (Setaria viridis) herbicidal effect [13]: 1 (Herbicidal ratio of 5% or more and less than 20%)
- R (Veronica persica) herbicidal effect [14]: 3 (Herbicidal ratio of 40% or more and less than 70%)

Compound: Cc1cc(-c2nnc3c(C(=O)Nc4nnc(C)o4)ccc(C(F)(F)F)n23)no1 [1-022]
- E (Cyperus difformis) herbicidal ratio grade [1]: 4 (Herbicidal ratio of 70% or more and less than 90%)
- H (Echinochloa crus-galli var. crus-galli) herbicidal ratio grade [2]: 5 (Herbicidal ratio of 90% or more (almost completely withered))
- D (Leptochloa chinensis) herbicidal ratio grade [3]: 5 (Herbicidal ratio of 90% or more (almost completely withered))
- M (Abutilon theophrasti) herbicidal effect [4]: 5 (Herbicidal ratio of 90% or more (almost completely withered))
- J (Alopecurus myosuroides) herbicidal effect [5]: 1 (Herbicidal ratio of 5% or more and less than 20%)
- L (Apera spica-venti.) herbicidal effect [6]: 1 (Herbicidal ratio of 5% or more and less than 20%)
- I (Avena fatua) herbicidal effect [7]: 1 (Herbicidal ratio of 5% or more and less than 20%)
- O (Chenopodium album) herbicidal effect [8]: 5 (Herbicidal ratio of 90% or more (almost completely withered))
- F (Digitaria ciliaris) herbicidal effect [9]: 4 (Herbicidal ratio of 70% or more and less than 90%)
- H (Echinochloa crus-galli var. crus-galli) herbicidal effect [10]: 5 (Herbicidal ratio of 90% or more (almost completely withered))
- Q (Galium spurium) herbicidal effect [11]: 2 (Herbicidal ratio of 20% or more and less than 40%)
- K (Lolium multiflorum Lam.) herbicidal effect [12]: 1 (Herbicidal ratio of 5% or more and less than 20%)
- G (Setaria viridis) herbicidal effect [13]: 3 (Herbicidal ratio of 40% or more and less than 70%)
- R (Veronica persica) herbicidal effect [14]: 4 (Herbicidal ratio of 70% or more and less than 90%)
